Experimental data: US20050221406A1, “Method, composition and device for treating starch related diseases” (priority 2004, published 2005)
Where “and” joins values, the source holds several entries; their conditions need not be identical. Equal values may be shown once.

Tests used:
[1] = trial (i): 300 mg sodium bicarbonate per kg of body mass, 100 min before exercise; fourteen healthy male volunteers; differs from placebo and no ingestion (P<0.05)
Experimental: A double-blind protocol was used between the (i) and (ii) trials. […] Each condition was repeated so that the volunteers underwent treadmill exercise for six times. 100 minutes before commencing treadmill exercise was allowed after ingesting substances in (i), (ii) and (iii). The volunteers exercised until fatigue. Fourteen of the volunteers completed all the tests.
A double-blind protocol was used between the (i) and (ii) trials. […] Each condition was repeated so that the volunteers underwent treadmill exercise for six times. 100 min before commencing treadmill exercise was allowed after ingesting substances in (i), (ii) and (iii). The volunteers exercised until fatigue.
Results: Fourteen of the volunteers completed all the tests. […] The data were analyzed using a two-way ANOVA with replicates and Tukey tests.

[2] = Wilkes and co-workers, cited from earlier work
[3] = four 1-minute maximal sprints at 125%, fifth interval to exhaustion; ingestion prior to exercise; cited from earlier work
[4] = running at intensity corresponding to blood lactate of 4 mM, sustained approximately 30 minutes; cited from earlier work
[5] = 100, 150, and 200 mg NaHCO3/kg body weight; 2-minute maximal exercise bout; cited from earlier work
[6] = venous blood; typical time course; cited from earlier work
[7] = Blood glucose readings, Type I diabetic patient (Tables 1 and 2); assay type: in vivo, human; settings: Table 1, one week before starting treatment, insulin 30 iu twice a day, daily readings Mon-Sun
Text: The patient started using the first method of treatment (day and night), then changed to the 3rd method after 2 weeks of treatment, carried n with it continuously.
The patient was on 30 iu of insulin twice a day (60 iu/day) regardless of any reading of their glucose levels. […] After 4 weeks of continuous treatment with P.I.R.T (treatment method number three), their insulin does was reduced to 10 iu in the morning and 20 iu in the evening (30 iu per day).

Compound	average time, treadmill exercise until fatigue [1]	decrease in 800 m running time [2]	distance equivalent of the decrease in 800 m running time ([2]; estimated)	increase of exercise duration of the final bout [3]	effect on time to exhaustion [4]	effect on power output [5]	time of maximal rise in pH bicarbonate ion concentration after ingestion [6]	time pH bicarbonate ion concentration remains elevated after ingestion [6]	Pre tea BG [7]
O=C([O-])O.[Na+] [sodium bicarbonate]	4.01 s	~3 s	approximately 19 m	42%	no effect	no significant increase	about 1.5 hours	at least 2 hours	–
insulin	–	–	–	–	–	–	–	–	23.1 mM and 26.2 mM and 18.4 mM and 22.2 mM and 19.5 mM and 19.9 mM and 17.4 mM
